Reference: patent US11987563B1, “3-cyano 4,5-diphenyl furan-2-carboxamides as antitubercular agents” (KING FAISAL UNIVERSITY, priority 2023, dated 2024)

What was measured:
[1] = test system: M. smegmatis; assay: Microplate Alamar Blue Assay (MABA) against M. smegmatis; assay type: cell-based, Mycobacterium smegmatis; conditions: Mycolicibacterium smegmatis; read-out: M. smegmatis (% of inhibition) 50 μg/mL
[2] = test system: M. tuberculosis H37Rv; assay: Microplate Alamar Blue Assay (MABA) against M. tuberculosis H37Rv; assay type: cell-based; conditions: Mycobacterium tuberculosis, read-out: M. tuberculosis H37Rv (% of inhibition) 50 μg/mL

| Structure (SMILES) | inhibition at 50 µg/mL [1] [%] | inhibition at 50 µg/mL [2] [%] |
| --- | --- | --- |
| N#Cc1c(N)oc(-c2ccccc2)c1-c1ccccc1 [Compound 1, 2-Amino-4,5-diphenylfuran-3-carbonitrile] | 32 | 6 |
| CC(=O)Nc1oc(-c2ccccc2)c(-c2ccccc2)c1C#N [Compound 2a, N-(3-Cyano-4,5-diphenylfuran-2-yl)acetamide] | 38 | 27 |
| N#Cc1c(NC(=O)c2ccccc2)oc(-c2ccccc2)c1-c1ccccc1 [Compound 2b, N-(3-Cyano-4,5-diphenylfuran-2-yl)benzamide] | 13 | 6 |
| N#Cc1c(NC(=O)c2ccc(Cl)cc2)oc(-c2ccccc2)c1-c1ccccc1 [Compound 2c, 4-Chloro-N-(3-cyano-4,5-diphenylfuran-2-yl)benzamide] | 25 | 19 |
| Cc1ccc(S(=O)(=O)Nc2oc(-c3ccccc3)c(-c3ccccc3)c2C#N)cc1 [Compound 2d, N-(3-Cyano-4,5-diphenylfuran-2-yl)-4-methylbenzenesulfonamide] | 37 | 9 |
